Measurements reported in the CheMixHub viscosity set.

Assay: xn = mol fraction of the nth substance listed

CCCC[N+](CCCC)(CCCC)CCCC.[Br-] + CCCCCCCCCO
101.3 kPa, x1 = 0.2
Settings	viscosity [mPa·s]
293.15 K	56.57
298.15 K	43.65
303.15 K	35.27
308.15 K	28.53
313.15 K	23.29
318.15 K	19.13
323.15 K	15.99

C1=Cc2cccc3cccc1c23 + Cc1ccccc1
viscosity [mPa·s], 101 kPa
Settings	303.15 K	308.15 K	313.15 K	318.15 K
x1 = 0.1292	0.6888	0.6467	0.608	0.573
x1 = 0.195	0.794	0.74	0.6961	0.6516

O=C(O)CC(O)C(=O)O (centres undefined) + C[C@H](N)C(=O)O
101 kPa, x2 = 0.5
Settings	viscosity [mPa·s]
298.15 K	475400
318.15 K	32390

NCCNCCN + CCCCCCCCO
viscosity [mPa·s], 101 kPa
Settings	298.15 K	303.15 K	308.15 K
x1 = 0.0574	8.191	6.649	5.637
x1 = 0.1135	8.77	7.063	5.975
x1 = 0.1584	9.103	7.248	6.111
x1 = 0.2	9.198	7.3	6.14
x1 = 0.2521	9.202	7.268	6.096
x1 = 0.311	9.044	7.129	5.957
x1 = 0.4024	8.532	6.792	5.691
x1 = 0.5076	7.72	6.264	5.244
x1 = 0.6106	6.988	5.798	4.877
x1 = 0.7085	6.366	5.286	4.493
x1 = 0.8064	6.017	4.915	4.228
x1 = 0.8556	5.901	4.791	4.101
x1 = 0.9033	5.791	4.679	3.999
x1 = 0.9524	5.699	4.584	3.889
